Columns and labels:
Format in all cases: cell-based
CCRF-CEM = test: NCI-60 one-dose screen; conditions: Homo sapiens, Leukemia panel, single dose 10^−5 M, read-out: Growth inhibition %
NCI-H23 = test: NCI-60 one-dose screen; conditions: Homo sapiens; NCI-H23, Non-small cell lung panel; single dose 10^−5 M; read-out: Growth inhibition %
OVCAR-4 = test: NCI-60 one-dose screen; conditions: Homo sapiens; OVCAR-4, Ovarian Cancer panel; single dose 10^−5 M; read-out: Growth inhibition %
MDA-MB-435 = test: NCI-60 one-dose screen; conditions: Homo sapiens; MDA-MB-435, Melanoma panel; single dose 10^−5 M; read-out: Growth inhibition %
A498 = test: NCI-60 one-dose screen; conditions: Homo sapiens; A498, Renal Cancer panel; single dose 10^−5 M; read-out: Growth inhibition %
SK-MEL-28 = test: NCI-60 one-dose screen; conditions: Homo sapiens; SK-MEL-28, Melanoma panel; single dose 10^−5 M; read-out: Growth inhibition %
SF-295 = test: NCI-60 one-dose screen; conditions: Homo sapiens; SF-295, CNS Cancer panel; single dose 10^−5 M; read-out: Growth inhibition %
NCI-H460 = test: NCI-60 one-dose screen; conditions: Homo sapiens; NCI-H460, Non-small cell lung panel; single dose 10^−5 M; read-out: Growth inhibition %
DU-145 = test: NCI-60 one-dose screen; conditions: Homo sapiens; DU-145, Prostate Cancer panel; single dose 10^−5 M; read-out: Growth inhibition %
SK-OV-3 = test: NCI-60 one-dose screen; conditions: Homo sapiens; SK-OV-3, Ovarian Cancer panel; single dose 10^−5 M; read-out: Growth inhibition %
HCT-15 = test: NCI-60 one-dose screen; conditions: Homo sapiens; HCT-15, Colon Cancer panel; single dose 10^−5 M; read-out: Growth inhibition %
BT-549 = test: NCI-60 one-dose screen; conditions: Homo sapiens; BT-549, Breast Cancer panel; single dose 10^−5 M; read-out: Growth inhibition %
HOP-92 = test: NCI-60 one-dose screen; conditions: Homo sapiens; HOP-92, Non-small cell lung panel; single dose 10^−5 M; read-out: Growth inhibition %
SNB-75 = test: NCI-60 one-dose screen; conditions: Homo sapiens; SNB-75, CNS Cancer panel; single dose 10^−5 M; read-out: Growth inhibition %
PC-3 = test: NCI-60 one-dose screen; conditions: Homo sapiens; PC-3, Prostate Cancer panel; single dose 10^−5 M; read-out: Growth inhibition %
HT29 = test: NCI-60 one-dose screen; conditions: Homo sapiens, HT-29; HT29, Colon Cancer panel; single dose 10^−5 M; read-out: Growth inhibition %
NCI/ADR-RES = test: NCI-60 one-dose screen; conditions: Homo sapiens, Ovarian Cancer panel, single dose 10^−5 M, read-out: Growth inhibition %
HL-60(TB) = test: NCI-60 one-dose screen; conditions: Homo sapiens, Leukemia panel, single dose 10^−5 M, read-out: Growth inhibition %
CAKI-1 = test: NCI-60 one-dose screen; conditions: Homo sapiens; CAKI-1, Renal Cancer panel; single dose 10^−5 M; read-out: Growth inhibition %
OVCAR-5 = test: NCI-60 one-dose screen; conditions: Homo sapiens; OVCAR-5, Ovarian Cancer panel; single dose 10^−5 M; read-out: Growth inhibition %
T-47D = test: NCI-60 one-dose screen; conditions: Homo sapiens, T47D, Breast Cancer panel, single dose 10^−5 M, read-out: Growth inhibition %
EKVX = test: NCI-60 one-dose screen; conditions: Homo sapiens, Non-small cell lung panel, single dose 10^−5 M, read-out: Growth inhibition %
SK-MEL-5 = test: NCI-60 one-dose screen; conditions: Homo sapiens; SK-MEL-5, Melanoma panel; single dose 10^−5 M; read-out: Growth inhibition %
NCI-H522 = test: NCI-60 one-dose screen; conditions: Homo sapiens; NCI-H522, Non-small cell lung panel; single dose 10^−5 M; read-out: Growth inhibition %
ACHN = test: NCI-60 one-dose screen; conditions: Homo sapiens, Renal Cancer panel, single dose 10^−5 M, read-out: Growth inhibition %
SR = test: NCI-60 one-dose screen; conditions: Homo sapiens, Leukemia panel, single dose 10^−5 M, read-out: Growth inhibition %
786-0 = test: NCI-60 one-dose screen; conditions: Homo sapiens; 786-0, Renal Cancer panel; single dose 10^−5 M; read-out: Growth inhibition %
MOLT-4 = test: NCI-60 one-dose screen; conditions: Homo sapiens; MOLT-4, Leukemia panel; single dose 10^−5 M; read-out: Growth inhibition %
M14 = test: NCI-60 one-dose screen; conditions: Homo sapiens; M14, Melanoma panel; single dose 10^−5 M; read-out: Growth inhibition %
MCF7 = test: NCI-60 one-dose screen; conditions: Homo sapiens; MCF7, Breast Cancer panel; single dose 10^−5 M; read-out: Growth inhibition %
IGROV1 = test: NCI-60 one-dose screen; conditions: Homo sapiens, IGROV-1; IGROV1, Ovarian Cancer panel; single dose 10^−5 M; read-out: Growth inhibition %
[1] = system: panel of 60 human tumor cell lines; test: NCI 60-cell line one-dose screen (mean); conditions: mean of the 60 cell lines, single dose 10^−5 M, read-out: Mean % Growth Inhibition
Procedure, shortened: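 At the NCI Developmental Therapeutic Program, each compound is screened once at 10^−5 M across sixty human tumour cell lines. Values are % inhibition.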

COc1ccc2nc3ccccc3c(NCc3ccccc3)c2c1 [Compound 25, Benzyl-(2-methoxyacridin-9-yl)-amine]
inhibition at 10 µM (CCRF-CEM): 66.6%
inhibition at 10 µM (NCI-H23): 78.5%
inhibition at 10 µM (OVCAR-4): 59.2%
inhibition at 10 µM (MDA-MB-435): 66.2%
inhibition at 10 µM (A498): 114%
inhibition at 10 µM (SK-MEL-28): 50.3%
inhibition at 10 µM (SF-295): 80.3%
inhibition at 10 µM (NCI-H460): 93.7%
inhibition at 10 µM (DU-145): 77.5%
inhibition at 10 µM (SK-OV-3): 55.5%
inhibition at 10 µM (HCT-15): 86.9%
inhibition at 10 µM (BT-549): 49.7%
inhibition at 10 µM (HOP-92): 113%
inhibition at 10 µM (SNB-75): 54.5%
inhibition at 10 µM (PC-3): 71.3%
inhibition at 10 µM (HT29): 91.5%
inhibition at 10 µM (NCI/ADR-RES): 81.7%
inhibition at 10 µM (HL-60(TB)): 91.8%
inhibition at 10 µM (CAKI-1): 74.2%
inhibition at 10 µM (OVCAR-5): 71%
inhibition at 10 µM (T-47D): 64.7%
inhibition at 10 µM (EKVX): 73.1%
inhibition at 10 µM (SK-MEL-5): 81.2%
inhibition at 10 µM (NCI-H522): 65.4%
inhibition at 10 µM (ACHN): 87.2%
inhibition at 10 µM (SR): 95.7%
inhibition at 10 µM (786-0): 77.7%
inhibition at 10 µM (MOLT-4): 92%
inhibition at 10 µM (M14): 74%
inhibition at 10 µM (MCF7): 95.7%
inhibition at 10 µM (IGROV1): 83.6%
inhibition at 10 µM [1]: 80%

COc1ccc2nc3ccccc3c(NCc3ccc(F)cc3)c2c1 [Compound 28, (4-Fluorobenzyl)-(2-methoxyacridin-9-yl)-amine]
inhibition at 10 µM (CCRF-CEM): 81.7%
inhibition at 10 µM (NCI-H23): 86%
inhibition at 10 µM (OVCAR-4): 86.4%
inhibition at 10 µM (MDA-MB-435): 76.1%
inhibition at 10 µM (A498): 108%
inhibition at 10 µM (SK-MEL-28): 64.7%
inhibition at 10 µM (SF-295): 85.6%
inhibition at 10 µM (NCI-H460): 94.5%
inhibition at 10 µM (DU-145): 83.5%
inhibition at 10 µM (SK-OV-3): 62.1%
inhibition at 10 µM (HCT-15): 95.9%
inhibition at 10 µM (BT-549): 65%
inhibition at 10 µM (HOP-92): 111%
inhibition at 10 µM (SNB-75): 76.2%
inhibition at 10 µM (PC-3): 82.9%
inhibition at 10 µM (HT29): 99.8%
inhibition at 10 µM (NCI/ADR-RES): 84.9%
inhibition at 10 µM (HL-60(TB)): 135%
inhibition at 10 µM (CAKI-1): 92.8%
inhibition at 10 µM (OVCAR-5): 82%
inhibition at 10 µM (T-47D): 63.5%
inhibition at 10 µM (EKVX): 77.6%
inhibition at 10 µM (SK-MEL-5): 107%
inhibition at 10 µM (NCI-H522): 81.8%
inhibition at 10 µM (ACHN): 94.3%
inhibition at 10 µM (SR): 101%
inhibition at 10 µM (786-0): 93.2%
inhibition at 10 µM (MOLT-4): 99.5%
inhibition at 10 µM (M14): 84.7%
inhibition at 10 µM (MCF7): 128%
inhibition at 10 µM (IGROV1): 91.8%
inhibition at 10 µM [1]: 92.2%

Reference: publication PMC9866191, “Novel 9-Benzylaminoacridine Derivatives as Dual Inhibitors of Phosphodiesterase 5 and Topoisomerase II for the Treatment of Colon Cancer” (Molecules, 2023)
